Data taken from US6030841A, “Liver function test” (Norgine Limited, priority 1997, dated 2000).
Like-named read-outs stand apart in the source and are kept apart here.

Key:
[1] = Plasma elimination of CLF after intravenous injection in healthy volunteers (and patients); format: in vivo, human
Experimental: A study was carried out in six healthy volunteers (1 female, 5 male), ages 30-53 years. Subjects were studied supine after overnight fasting. After an initial basal blood sample was taken, CLF in a dose of 0.02 mg/kg of body weight (b.w.) in physiological saline was injected intravenously during 15 seconds. Venous blood samples were collected from the opposite antecubital vein into gel and lithium heparin containers (sold under the Trade Name Vacutainers by Becton Dickinson Vacutainer Systems) at 2, 3, 4, 6, 10, 15, 20, 30, 60 and 90 minutes. The blood samples were then centrifuged and 0.5 ml aliquots of plasma were taken and added to 3.5 ml of methanol to precipitate plasma proteins, followed by further centrifugation. The supernatant (1 ml) was diluted to 3 ml with methanol and the fluorescence was then measured by spectrometer (Perkin Elmer LS5B Luminescence Spectrometer).
CLF concentration (μg/ml) was derived from a calibration curve which expressed the equation: […]
where y represents the measured fluorescence in fluorescence units at an excitation wavelength of 490 nm with emission at 520 nm and x represents the CLF concentration in μg/ml. The calibration curve was calibrated from fluorescence meaurements of solutions having known CLF concentrations followed by linear regression analysis.
Non linear plasma elimination curves presented as percentage dose administered per liter of plasma were fitted to a tri-exponential model. The half life (t1/2 time) was calculated for the first (t1/2 1st phase), second (t1/2 2nd phase) and third (t1/2 3rd phase) phases of the elimination curves from the equations: […]
where k1, k2 and k3 were calculated for each subject using the equation:
Ct =Ae^-k.sbsp.1^t +Be^-k.sbsp.2^t
Ct is the concentration of CLF at time t, A, B and C are the intercepts of each phase of elimination at t=0 k1, k2 and k3 are fractional disappearance rates of the three phases of elimination.

[2] = Standard liver function tests, electrolytes and kidney function before and after 0.5 mg/kg b.w. CLF; format: in vivo, human
Experimental: In five healthy volunteers, a 25-fold higher dose of CLF (0.5 mg/kg b.w.) was injected in order to further assess the appropriateness of the dose chosen and the safety of the compound. […] Table.
Tests of Liver Function Before And After CLF Dose of
0.5 mg/Kg b.w. For 5 Healthy Patients.

[3] = Horak et al., cited from earlier work
[4] = radiolabelled, bi-exponential model, Cowen et al.; cited from earlier work
[5] = CLF 0.02 mg/kg b.w. i.v., healthy volunteers, plasma, tri-exponential model
[6] = after CLF 0.5 mg/kg b.w., only one value given

Q: For `CC(CCC(=O)NC(CCCCNC(=S)Nc1ccc(-c2c3ccc(=O)cc-3oc3cc(O)ccc23)c(C(=O)O)c1)C(=O)O)C1CCC2C3C(O)CC4CC(O)CCC4(C)C3CC(O)C12C` (stereo not shown) [CLF, cholyl-lysyl-fluorescein], which “efficiency of hepatic clearance (elimination curves at 25-fold increased dose)” value ([1]; 0.5 mg/kg b.w. i.v. versus 0.02 mg/kg, healthy volunteers) is on record?
A: efficiency of hepatic clearance is unchanged

Q: And the “percentage of fluorescence after 60 min (fluorescence at 60 min compared with 10 min)” value ([1]; 60 min vs 10 min, plasma, healthy volunteers)?
A: 13.1±1.6%

Q: What about the “Plasma retention at 90 minutes, percentage of the dose administered per liter of plasma” value ([1]; 90 minutes, i.v., healthy volunteers) of the same molecule?
A: 2.2%

Q: What about the “t1/2 1st phase of elimination” value [1, 5] of the same molecule?
A: 1.7 ± 0.9 min

Q: What about the “t1/2 2nd phase of elimination” value [1, 5] of the same molecule?
A: 6.7 ± 1.6 min

Q: What about the “t1/2 3rd phase of elimination” value [1, 5] of the same molecule?
A: 68 ± 17 min

Q: And the “CLF plasma elimination compared with natural bile acids” value ([1]; body of data, comparison with natural bile acids)?
A: very similar to the elimination of natural bile acids

Q: And the volume of distribution ([1]; calculated as proposed by Thiordleifsson et al., 0.02 mg/kg)?
A: 2214 ± 147 mL

Q: What about the “CLF elimination curves of FIG. 2” value ([1]; healthy patients versus patients with fatty, cirrhotic and recently transplanted livers (5 days post operation)) of the same molecule?
A: differing rates of CLF elimination

Q: What about the “Serum biochemistry including basic liver function tests, electrolytes and kidney function” value ([2]; 0.5 mg/kg b.w. i.v., five healthy volunteers) of the same molecule?
A: did not change significantly

Q: And the “plasma alkaline phosphatase levels post injection” value ([2]; 0.5 mg/kg b.w. i.v., healthy volunteers, not statistically significant)?
A: consistent diminution

Q: What about the “bilirubin after CLF injection” value ([2]; after CLF 0.5 mg/kg b.w., before: 10) of the same molecule?
A: 11 μM/L

Q: And the “AST (aspartate aminotransferase) after CLF injection” value ([2]; after CLF 0.5 mg/kg b.w., before: 17)?
A: 16 U/L

Q: What about the “Creatinine after CLF injection” value ([2]; after CLF 0.5 mg/kg b.w., before: 94) of the same molecule?
A: 89 μM/L

Q: And the “AlkP (alkaline phosphatase) after CLF injection” value ([2]; after CLF 0.5 mg/kg b.w., before: 148)?
A: 134 U/L

Q: And the “Albumin after CLF injection” value [2, 6]?
A: 42 g/L

Q: And the “Urea after CLF injection” value [2, 6]?
A: 4.3 mM/L

Q: With `C[C@H](CCC(=O)O)[C@H]1CC[C@H]2[C@@H]3[C@H](O)C[C@@H]4C[C@H](O)CC[C@]4(C)[C@H]3C[C@H](O)[C@]12C` [cholic acid] as the molecule, how does the “60 min plasma retention” value ([3]; FHF patients who survived) read?
A: 60%

Q: And the “60 min plasma retention” value ([3]; healthy volunteers, 60 min compared with 10 min)?
A: 8±1%

Q: What about the “60 min plasma retention” value ([3]; patients with fulminant hepatic failure (FHF) who subsequently died) of the same molecule?
A: 71%

Q: What does the source list for `C[C@H](CCC(=O)NCC(=O)O)[C@H]1CC[C@H]2[C@@H]3[C@H](O)C[C@@H]4C[C@H](O)CC[C@]4(C)[C@H]3C[C@H](O)[C@]12C` [cholyl glycine]?
A: t1/2 first exponential [4]: 1.7 ± 0.1 min; t1/2 second exponential [4]: 7 ± 0.1 min
